Results as given in ChEMBL document CHEMBL4257082, “Nhe3-binding compounds and methods for inhibiting phosphate transport” (2016).
Values belong to the compound of their own block, whether it stands above or below them. Activity calls are given as the source filed them. No cut-off for these calls is given here.

Legend:
Rattus norvegicus [1] = assay: In vivo inhibition of NHE3 in Sprague-Dawley rat assessed as inhibition of sodium absorption from intestinal lumen by measuring urinary sodium concentration at 10 mg/kg, po via gavage measured after 16 hrs relative to control; format: functional; design: scale not given: the % may be the effect or the level left
Rattus norvegicus [2] = assay: In vivo inhibition of NHE3 in Sprague-Dawley rat assessed as inhibition of sodium absorption from intestinal lumen by measuring urinary sodium concentration at 3 mg/kg, po via gavage measured after 16 hrs relative to control; format: functional; design: scale not given: the % may be the effect or the level left
Rattus norvegicus [3] = assay: In vivo inhibition of NHE3 in Sprague-Dawley rat assessed as inhibition of sodium absorption from intestinal lumen by measuring urinary sodium concentration at 1 mg/kg, po via gavage measured after 16 hrs relative to control; format: functional; design: scale not given: the % may be the effect or the level left
Homo sapiens = organism: Homo sapiens; assay: Selectivity ratio of IC50 for NHE3 (unknown origin) to IC50 for NHE1 (unknown origin)
Rattus norvegicus [4] = assay: In vivo inhibition of NHE3 in rat assessed as inhibition of 33Pi uptake at 10 mg/kg, po measured up to 120 mins; format: functional, organism-based
Rattus norvegicus [5] = assay: Decrease in calcium urinary excretion in dietary salt-induced partial renal ablation Sprague-Dawley rat model of chronic kidney disease at 0.1 to 3 mg/kg/day added to normal chow pellets; format: functional, organism-based
Rattus norvegicus [6] = assay: Decrease in phosphorus urinary excretion in dietary salt-induced partial renal ablation Sprague-Dawley rat model of chronic kidney disease at 0.1 to 3 mg/kg/day added to normal chow pellets; format: functional, organism-based
[7] = Oral bioavailability in human; format: ADME, organism-based; conditions: in vivo
[8] = molecular target: T1, Sodium/hydrogen exchanger 2 (Oryctolagus cuniculus, UniProt P50482); assay: Inhibition of rabbit NHE2
T1 sequence (P50482 whole entry): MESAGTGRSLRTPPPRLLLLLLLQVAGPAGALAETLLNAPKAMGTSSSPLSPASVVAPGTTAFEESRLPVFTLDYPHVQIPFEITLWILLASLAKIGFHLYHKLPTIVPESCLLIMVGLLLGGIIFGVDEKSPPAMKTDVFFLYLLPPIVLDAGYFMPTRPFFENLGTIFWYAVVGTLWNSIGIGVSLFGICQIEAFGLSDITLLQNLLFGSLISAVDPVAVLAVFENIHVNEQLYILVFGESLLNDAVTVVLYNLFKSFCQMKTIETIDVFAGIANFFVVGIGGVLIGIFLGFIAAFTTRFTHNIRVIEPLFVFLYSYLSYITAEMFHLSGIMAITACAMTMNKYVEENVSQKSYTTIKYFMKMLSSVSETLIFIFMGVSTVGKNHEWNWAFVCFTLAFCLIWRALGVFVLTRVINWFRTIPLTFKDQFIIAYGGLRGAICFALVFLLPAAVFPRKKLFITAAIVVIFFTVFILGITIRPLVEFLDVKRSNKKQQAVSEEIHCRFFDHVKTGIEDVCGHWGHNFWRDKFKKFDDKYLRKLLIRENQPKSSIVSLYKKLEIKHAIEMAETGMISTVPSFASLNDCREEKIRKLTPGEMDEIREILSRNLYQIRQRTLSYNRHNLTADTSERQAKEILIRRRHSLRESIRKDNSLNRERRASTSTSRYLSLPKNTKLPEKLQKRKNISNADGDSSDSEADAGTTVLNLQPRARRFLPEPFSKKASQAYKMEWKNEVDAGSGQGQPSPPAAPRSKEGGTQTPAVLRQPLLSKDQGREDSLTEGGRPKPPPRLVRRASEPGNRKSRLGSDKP

[9] = molecular target: Sodium/hydrogen exchanger 1 (Rattus norvegicus, UniProt P26431); assay: Inhibition of rat NHE1
[10] = molecular target: T2, Sodium/hydrogen exchanger 5 (Homo sapiens, UniProt Q14940); assay: Inhibition of NHE5 (unknown origin)
T2 sequence (Q14940 whole entry): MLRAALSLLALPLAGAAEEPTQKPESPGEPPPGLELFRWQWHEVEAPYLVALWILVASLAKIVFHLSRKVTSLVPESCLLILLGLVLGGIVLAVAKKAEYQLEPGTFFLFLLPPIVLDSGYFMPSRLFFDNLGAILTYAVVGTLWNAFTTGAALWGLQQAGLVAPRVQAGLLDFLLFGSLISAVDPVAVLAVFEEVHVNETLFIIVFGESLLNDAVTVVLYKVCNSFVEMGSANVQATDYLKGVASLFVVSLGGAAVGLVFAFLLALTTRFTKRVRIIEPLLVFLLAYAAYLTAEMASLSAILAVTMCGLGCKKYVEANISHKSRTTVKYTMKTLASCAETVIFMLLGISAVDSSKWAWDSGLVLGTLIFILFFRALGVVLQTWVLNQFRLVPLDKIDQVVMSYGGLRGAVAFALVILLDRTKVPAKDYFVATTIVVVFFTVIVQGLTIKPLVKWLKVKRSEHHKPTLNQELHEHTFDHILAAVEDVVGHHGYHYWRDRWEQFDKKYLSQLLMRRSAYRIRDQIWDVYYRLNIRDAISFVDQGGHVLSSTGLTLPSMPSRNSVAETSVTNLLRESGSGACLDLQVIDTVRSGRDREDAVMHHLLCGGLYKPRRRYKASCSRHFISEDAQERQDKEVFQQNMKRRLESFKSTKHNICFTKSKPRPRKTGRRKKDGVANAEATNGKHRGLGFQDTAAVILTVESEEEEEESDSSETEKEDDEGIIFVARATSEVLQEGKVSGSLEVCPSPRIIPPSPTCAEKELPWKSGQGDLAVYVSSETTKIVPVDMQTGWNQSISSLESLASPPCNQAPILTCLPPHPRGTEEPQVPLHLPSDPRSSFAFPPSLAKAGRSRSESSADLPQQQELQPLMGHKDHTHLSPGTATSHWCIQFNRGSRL

[11] = molecular target: Sodium/hydrogen exchanger 3 (Rattus norvegicus, UniProt P26433); assay: Inhibition of rat NHE3
[12] = molecular target: Sodium/hydrogen exchanger 1 (Oryctolagus cuniculus, UniProt P23791); assay: Inhibition of rabbit NHE1
Chain of Sodium/hydrogen exchanger 1 (Oryctolagus cuniculus, UniProt P23791) (P23791 whole entry): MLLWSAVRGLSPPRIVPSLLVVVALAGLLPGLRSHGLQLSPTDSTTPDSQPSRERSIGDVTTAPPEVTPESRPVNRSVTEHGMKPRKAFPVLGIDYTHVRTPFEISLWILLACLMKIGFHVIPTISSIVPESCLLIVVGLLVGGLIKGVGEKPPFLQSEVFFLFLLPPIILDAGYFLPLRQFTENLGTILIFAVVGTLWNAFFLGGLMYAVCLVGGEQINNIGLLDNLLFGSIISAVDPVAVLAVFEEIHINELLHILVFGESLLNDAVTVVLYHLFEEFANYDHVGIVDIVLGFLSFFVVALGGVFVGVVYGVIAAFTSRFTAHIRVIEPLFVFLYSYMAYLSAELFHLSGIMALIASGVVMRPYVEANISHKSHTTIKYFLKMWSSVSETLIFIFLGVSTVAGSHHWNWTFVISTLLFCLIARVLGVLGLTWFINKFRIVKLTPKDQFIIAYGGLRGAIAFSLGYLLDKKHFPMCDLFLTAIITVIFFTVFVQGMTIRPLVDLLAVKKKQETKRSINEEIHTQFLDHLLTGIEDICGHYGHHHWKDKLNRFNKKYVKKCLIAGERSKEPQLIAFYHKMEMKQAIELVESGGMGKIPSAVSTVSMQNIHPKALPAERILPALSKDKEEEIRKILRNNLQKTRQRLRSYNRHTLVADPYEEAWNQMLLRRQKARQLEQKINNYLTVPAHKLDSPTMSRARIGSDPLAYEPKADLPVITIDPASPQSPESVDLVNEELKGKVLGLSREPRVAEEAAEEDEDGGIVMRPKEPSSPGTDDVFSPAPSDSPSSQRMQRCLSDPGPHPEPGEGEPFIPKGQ

Chain of Sodium/hydrogen exchanger 1 (Rattus norvegicus, UniProt P26431) (P26431 whole entry): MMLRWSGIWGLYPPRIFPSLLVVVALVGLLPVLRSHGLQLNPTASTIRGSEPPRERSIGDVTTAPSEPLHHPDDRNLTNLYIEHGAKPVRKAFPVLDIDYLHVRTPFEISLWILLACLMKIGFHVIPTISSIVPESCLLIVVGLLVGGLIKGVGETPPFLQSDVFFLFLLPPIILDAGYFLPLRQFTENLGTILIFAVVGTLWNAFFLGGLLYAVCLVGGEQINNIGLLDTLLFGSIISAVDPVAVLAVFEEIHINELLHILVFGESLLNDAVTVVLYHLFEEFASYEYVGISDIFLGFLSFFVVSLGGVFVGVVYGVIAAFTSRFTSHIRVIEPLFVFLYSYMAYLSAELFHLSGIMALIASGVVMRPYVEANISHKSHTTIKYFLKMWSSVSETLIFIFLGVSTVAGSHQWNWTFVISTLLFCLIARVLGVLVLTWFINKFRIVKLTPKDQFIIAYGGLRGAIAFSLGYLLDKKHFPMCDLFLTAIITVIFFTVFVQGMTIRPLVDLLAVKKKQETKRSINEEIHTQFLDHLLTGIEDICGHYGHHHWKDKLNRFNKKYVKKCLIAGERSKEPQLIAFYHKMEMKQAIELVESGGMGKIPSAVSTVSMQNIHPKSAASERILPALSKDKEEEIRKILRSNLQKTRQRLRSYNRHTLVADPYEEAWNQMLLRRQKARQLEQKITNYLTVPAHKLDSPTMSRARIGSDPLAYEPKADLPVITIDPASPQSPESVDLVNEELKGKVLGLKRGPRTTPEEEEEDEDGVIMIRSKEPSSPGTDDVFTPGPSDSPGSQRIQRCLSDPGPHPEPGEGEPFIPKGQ
Chain of Sodium/hydrogen exchanger 3 (P26433 whole entry): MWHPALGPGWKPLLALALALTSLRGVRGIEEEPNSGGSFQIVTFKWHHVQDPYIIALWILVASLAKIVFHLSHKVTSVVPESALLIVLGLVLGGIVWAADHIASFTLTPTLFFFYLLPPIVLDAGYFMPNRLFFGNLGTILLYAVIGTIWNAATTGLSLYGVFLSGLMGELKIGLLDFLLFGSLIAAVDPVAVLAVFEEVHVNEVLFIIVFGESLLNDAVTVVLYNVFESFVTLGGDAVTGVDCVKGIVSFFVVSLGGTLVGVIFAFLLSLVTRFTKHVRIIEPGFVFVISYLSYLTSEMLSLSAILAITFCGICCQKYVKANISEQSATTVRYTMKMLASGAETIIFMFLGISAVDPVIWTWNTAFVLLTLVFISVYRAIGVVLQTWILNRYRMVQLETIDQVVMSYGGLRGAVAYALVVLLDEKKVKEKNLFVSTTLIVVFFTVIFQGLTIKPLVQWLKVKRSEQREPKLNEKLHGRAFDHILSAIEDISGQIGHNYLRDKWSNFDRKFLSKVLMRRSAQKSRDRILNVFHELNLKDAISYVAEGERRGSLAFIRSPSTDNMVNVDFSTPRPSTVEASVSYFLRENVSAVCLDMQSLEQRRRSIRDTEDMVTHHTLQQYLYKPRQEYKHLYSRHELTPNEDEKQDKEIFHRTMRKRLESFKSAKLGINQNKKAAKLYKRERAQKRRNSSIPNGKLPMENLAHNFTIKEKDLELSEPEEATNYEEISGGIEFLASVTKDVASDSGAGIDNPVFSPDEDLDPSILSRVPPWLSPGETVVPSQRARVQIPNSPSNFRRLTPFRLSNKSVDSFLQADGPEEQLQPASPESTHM

SMILES: CN1Cc2c(Cl)cc(Cl)cc2[C@H](c2cccc(S(=O)(=O)NCCOCCOCCNC(=O)CN3CCN(CC(=O)NCCOCCOCCOCCNS(=O)(=O)c4cccc([C@@H]5CN(C)Cc6c(Cl)cc(Cl)cc65)c4)CCN(CC(=O)NCCOCCOCCOCCNS(=O)(=O)c4cccc([C@@H]5CNCc6c(Cl)cc(Cl)cc65)c4)CCN(CC(=O)NCCOCCOCCOCCNS(=O)(=O)c4cccc([C@@H]5CN(C)Cc6c(Cl)cc(Cl)cc65)c4)CC3)c2)C1
Activity (Rattus norvegicus [1]): 82%

SMILES: CN1Cc2c(Cl)cc(Cl)cc2[C@H](c2cccc(S(=O)(=O)NCCOCCNC(=O)CCC(CCC(=O)NCCOCCOCCNS(=O)(=O)c3cccc([C@@H]4CN(C)Cc5c(Cl)cc(Cl)cc54)c3)(CCC(=O)NCCOCCOCCNS(=O)(=O)c3cccc([C@@H]4CN(C)Cc5c(Cl)cc(Cl)cc54)c3)NC(=O)[C@H]3CCCC[C@@H]3C(=O)O)c2)C1
Activity (Rattus norvegicus [2]): 63%

SMILES: O=C(NCCCCNC(=O)NCCOCCOCCNS(=O)(=O)c1ccc(O[C@H]2c3cc(Cl)cc(Cl)c3C[C@@H]2N2CC[C@@H](O)C2)cc1)NCCOCCOCCNS(=O)(=O)c1ccc(O[C@H]2c3cc(Cl)cc(F)c3C[C@@H]2N2CC[C@@H](O)C2)cc1
Activity (Rattus norvegicus [1]): 104%

SMILES: CN1Cc2c(Cl)cc(Cl)cc2[C@@H](c2ccc(S(=O)(=O)NCCOCCOCCNC(=O)NCCCCNC(=O)NCCOCCOCCNS(=O)(=O)c3cccc([C@@H]4CN(C)Cc5c(Cl)cc(Cl)cc54)c3)cc2)C1.Cl.Cl
Activity (Rattus norvegicus [1]): 68%

SMILES: CN1Cc2c(Cl)cc(Cl)cc2[C@H](c2cccc(S(=O)(=O)NCCOCCOCCNC(=O)CCC(CCC(=O)NCCOCCOCCNS(=O)(=O)c3cccc([C@@H]4CN(C)Cc5c(Cl)cc(Cl)cc54)c3)(CC(=O)NCCOCCOCCNS(=O)(=O)c3cccc([C@@H]4CN(C)Cc5c(Cl)cc(Cl)cc54)c3)NC(=O)CCC(=O)O)c2)C1
Activity (Rattus norvegicus [3]): 49% | Activity (Rattus norvegicus [2]): 12%

SMILES: CN1Cc2c(Cl)cc(Cl)cc2[C@H](c2ccc(S(=O)(=O)N(C)CCOCCOCCNC(=O)CCN(CCC(=O)NCCOCCOCCN(C)S(=O)(=O)c3cccc([C@@H]4CN(C)Cc5c(Cl)cc(Cl)cc54)c3)CCC(=O)NCCOCCOCCN(C)S(=O)(=O)c3cccc([C@@H]4CN(C)Cc5c(Cl)cc(Cl)cc54)c3)cc2)C1
Activity (Rattus norvegicus [2]): 64%

SMILES: CN1Cc2c(Cl)cc(Cl)cc2[C@H](c2ccc(S(=O)(=O)NCCOCCOCCNC(=O)NCCCCNC(=O)NCCOCCOCCNS(=O)(=O)c3cccc([C@@H]4CN(C)Cc5c(Cl)cc(Cl)cc54)c3)cc2)C1.Cl.Cl
Activity (Rattus norvegicus [1]): 90%

SMILES: CN1Cc2c(Cl)cc(Cl)cc2[C@H](c2cccc(S(=O)(=O)NCCOCCOCCNC(=O)NCCN(CCNC(=O)NCCOCCOCCNS(=O)(=O)c3cccc([C@@H]4CN(C)Cc5c(Cl)cc(Cl)cc54)c3)C(=O)CCCOCCOCCOCCOCCC(=O)N(CCNC(=O)NCCOCCOCCNS(=O)(=O)c3cccc([C@@H]4CN(C)Cc5c(Cl)cc(Cl)cc54)c3)CCNC(=O)NCCOCCOCCNS(=O)(=O)c3cccc([C@@H]4CN(C)Cc5c(Cl)cc(Cl)cc54)c3)c2)C1
Activity (Rattus norvegicus [1]): 47%

SMILES: CCCCCCCCOCCOCCOCCOCCCOCCOC(=O)NCCOCCOCCOCCNS(=O)(=O)c1cccc([C@@H]2CN(C)Cc3c(Cl)cc(Cl)cc32)c1
Activity (Rattus norvegicus [1]): 86%

SMILES: CN1Cc2c(Cl)cc(Cl)cc2[C@@H](c2cccc(S(=O)(=O)NCCOCCOCCNC(=O)N(C)CCCN(CCCN(C)C(=O)NCCOCCOCCNS(=O)(=O)c3cccc([C@@H]4CN(C)Cc5c(Cl)cc(Cl)cc54)c3)C(=O)NCCOCCOCCNS(=O)(=O)c3cccc([C@@H]4CN(C)Cc5c(Cl)cc(Cl)cc54)c3)c2)C1
Activity (Rattus norvegicus [3]): 88% | Activity (Rattus norvegicus [2]): 55% | Activity (Rattus norvegicus [1]): 28%

SMILES: CN1Cc2c(Cl)cc(Cl)cc2[C@H](c2ccc(S(=O)(=O)NCCOCCOCCNCCCC(CCC(=O)NCCOCCOCCNS(=O)(=O)c3cccc([C@@H]4CN(C)Cc5c(Cl)cc(Cl)cc54)c3)(CCC(=O)NCCOCCOCCNS(=O)(=O)c3cccc([C@@H]4CN(C)Cc5c(Cl)cc(Cl)cc54)c3)NC(=O)N3CCN(CCOCCO)CC3)cc2)C1
Activity (Rattus norvegicus [2]): 31%

SMILES: CC(=O)C(CCNC(=O)NCCOCCOCCNS(=O)(=O)c1cccc([C@@H]2CN(C)Cc3c(Cl)cc(Cl)cc32)c1)(CCNC(=O)NCCOCCOCCNS(=O)(=O)c1cccc([C@@H]2CN(C)Cc3c(Cl)cc(Cl)cc32)c1)CCNC(=O)NCCOCCOCCNS(=O)(=O)c1cccc([C@@H]2CN(C)Cc3c(Cl)cc(Cl)cc32)c1
Activity (Rattus norvegicus [2]): 42%

Ratio IC50 (Homo sapiens): > 500
SMILES: C/C(=C\c1cccc(/C=C(\C)C(=O)NC(=N)N)c1)C(=O)N=C(N)N

SMILES: CN1Cc2c(Cl)cc(Cl)cc2[C@@H](c2cccc(S(=O)(=O)NCCOCCOCCNC(=O)NCCCCNC(=O)NCCOCCOCCNS(=O)(=O)c3cccc([C@@H]4CN(C)Cc5c(Cl)cc(Cl)cc54)c3)c2)C1
inhibition (Rattus norvegicus [4]): inactive

SMILES: CN1Cc2c(Cl)cc(Cl)cc2[C@H](c2cccc(S(=O)(=O)NCCOCCOCCNC(=O)NCCCCNC(=O)NCCOCCOCCNS(=O)(=O)c3cccc([C@@H]4CN(C)Cc5c(Cl)cc(Cl)cc54)c3)c2)C1
Activity (Rattus norvegicus [5]): Active | Activity (Rattus norvegicus [6]): Active

bioavailability [7]: 0.6%
SMILES: OC[C@H]1O[C@@H](O[C@@H]2[C@@H](CO)O[C@](O)(CO)[C@H]2O)[C@H](O)[C@@H](O)[C@H]1O (mixture of isomers) [LACTULOSE]

SMILES: CCN(c1nc(N)c(C(=O)NC(=N)N)nc1Cl)C(C)C [5-(N-ETHYL-N-ISOPROPYL)AMILORIDE]
IC50 [8]: 500 nM | IC50 [9]: 10 nM | IC50 [10]: 420 nM | IC50 [11]: 2400 nM | IC50 [12]: 20 nM

bioavailability [7]: 96%
SMILES: C=CCc1ccccc1OCC(O)CNC(C)C (configuration not stated) [ALPRENOLOL]

SMILES: N=C(N)NC(=O)c1nc(Cl)c(N)nc1N [AMILORIDE]
IC50 [8]: 1000 nM | IC50 [9]: 1000 to 1600 nM | IC50 [10]: 21000 nM | IC50 [11]: > 100000 nM

SMILES: Cc1cc(=O)n(-c2ccccc2)n1C [ANTIPYRINE]
bioavailability [7]: 97%

bioavailability [7]: 17%
SMILES: O=C(O)P(=O)(O)O [FOSCARNET]

bioavailability [7]: 26%
SMILES: OC[C@@H](O)[C@@H](O)[C@H](O)[C@H](O)CO [MANNITOL]

bioavailability [7]: 64%
SMILES: Cc1ccccc1N1C(=O)c2cc(S(N)(=O)=O)c(Cl)cc2NC1C (configuration not stated) [METOLAZONE]

bioavailability [7]: 2.3%
SMILES: O=C(O)c1cc(/N=N/c2ccc(O)c(C(=O)O)c2)ccc1O [OLSALAZINE]

bioavailability [7]: 97%
SMILES: C=CCOc1ccccc1OCC(O)CNC(C)C (configuration not stated) [OXPRENOLOL]

SMILES: CC(C)NCC(O)COc1cccc2[nH]ccc12 (configuration not stated) [PINDOLOL]
bioavailability [7]: 92%

bioavailability [7]: 95%
SMILES: CC(=O)Nc1ccc(OCC(O)CNC(C)C)cc1 (configuration not stated) [PRACTOLOL]

bioavailability [7]: 0.3%
SMILES: OC[C@H]1O[C@H](OC[C@H]2O[C@H](O[C@]3(CO)O[C@H](CO)[C@@H](O)[C@@H]3O)[C@H](O)[C@@H](O)[C@@H]2O)[C@H](O)[C@@H](O)[C@H]1O [RAFFINOSE]

bioavailability [7]: 12%
SMILES: O=C(O)c1cc(/N=N/c2ccc(S(=O)(=O)Nc3ccccn3)cc2)ccc1O [SULFASALAZINE]

bioavailability [7]: 36%
SMILES: CCN1CCCC1CNC(=O)c1cc(S(N)(=O)=O)ccc1OC (configuration not stated) [SULPIRIDE]

bioavailability [7]: 55%
SMILES: NC[C@H]1CC[C@H](C(=O)O)CC1 [TRANEXAMIC ACID]
